The nature of one series: in vivo. Also on record: species or system Male Sprague-Dawley rats. The following applies: male, Sprague-Dawley, rat, iv, 1 mg/kg. The protocol: GW1843 (M.W. 500.51 g/mol) was obtained from Glaxo Wellcome, Inc. and suspended as an aqueous. Briefly, 616.74 milligrams of GW1843 was suspended in 1.4 mL 2 N NaOH. The solution was mixed until dissolved. To the dissolved solution 30 mL saline was added. The pH was adjusted to 7.15 with 2 N HCl. Finally, the solution was brought to 46.545 mL with saline. The nominal concentration was 13.25 mg/mL. UV absorption in 0.1 N sodium hydroxide at 266 nm, based on an extinction coefficient of 4.34×104 cm^−1 M^−1, determined the concentration. The concentration by UV spectroscopy was 13.97 mg/mL (5.4% difference from expected). The value determined by spectroscopy was utilized for standards in the HPLC assay. NX1843 lot SMC-991-96 (see Table 1A) was used for making quality control solutions.
Male Sprague-Dawley rats weighing 343.91 to 420.19 grams were used for the study. The in-life phase of the study was conducted in Boulder Colo. in accordance with the guidelines for animal welfare and care (NRC Publication Guide for the Care and Use of Laboratory Animals, 1996). IACUC protocol number N98010. Animals were allowed free access to food and water before and during treatment.
Individual animals treated with NX1843 were weighed and dosed at 1 mg/kg body weight by intravenous bolus administration into the tail vein while under isoflurane anesthesia.
Serial EDTA-blood samples (0.5 mL) were obtained at 5, 15, 30 and 45 minutes, and 1, 1.5 and 2 hr post-dosing for the GW1843 group while animals were under isoflurane anesthesia. For the NX1843 group, serial EDTA-blood samples (0.5 mL) were obtained at 10, 30 and 90 minutes and 4, 8, 24, 32, 48, 72 and 96 hours post-dosing. The EDTA-blood samples were immediately processed for plasma and plasma samples were stored at −20° C. until analysis.
An isocratic reverse phase high performance liquid chromatographic (HPLC) procedure was used for rapid determination of the total GW1843 concentration in rat EDTA-plasma. Following methanol precipitation of plasma protein (2 parts methanol to 1 part plasma), the protein was removed by centrifugation at 14,000×g for 10 minutes. A ZORBAX Eclipse™ XBD-C18 column (3 mm×15 cm) configured with a guard column was used to separate the soluble GW1843 (injection volume 20 μL). The HPLC buffer consisted of 80% 100-mM ammonium acetate pH 5.3, and 20% acetonitrile and the flow rate was 0.4 mL/min. The total run time was seven minutes and GW1843 was detected and quantified by ultraviolet absorbance at 264 nm. The standard curve consisted of free GW1843 spiked rat EDTA-plasma while the quality control samples consisted of NX1843 spiked rat EDTA-plasma. The range of the standard curve was 0.1 to 30.0 μg/mL.
The pharmacokinetic parameters for total GW1843 after i.v administration of GW1843 or liposome encapsulated GW1843 were assessed by a non-compartmental method using WinNonlin (version 1.5). The log/linear trapazoidal rule was used. For non-compartmental analysis, all three time points were utilized for the estimation the elimination phase for free GW1843 while the last 5 time points were utilized to estimate the elimination half-life of NX1843. Cmax values were estimated by extrapolation to zero time. Pharmacokinetic parameters were determined for each animal in the study. From values obtained in each group the mean and SD of each parameter was determined. The parameters estimated included:
The observed clearance (CL) of GW1843 following administration was calculated as: […]
Comparison of treatment groups was performed by unpaired t-tests of data obtained in the same experiment. A p-value of <0.05 was considered significant. Tests were performed using GraphPad Instat version 1.0 (GraphPad Software).

The subject of series [1] is human colon tumor xenograft model (HCT-8, thymidine kinase (TK)-/-). In kind it is in vivo. The note with it: for durable cures: until termination at day 57. An excerpt: Female Nu/Nu mice (18-24 g, 10-14 weeks old) were obtained from Harlan Sprague Dawley, and housed in microisolator filtration racks and maintained with filtered acidified water and sterile lab chow ad libitum. The human colon tumor xenograft model (HCT-8, thymidine kinase (TK)−/−) was obtained from Dr. Youcef M. Rustum (Roswell Park, Buffalo, N.Y.), and established in-house as a useful model for evaluation of thymidylate synthase inhibitors. Animals were allowed to acclimate to their new environment for 1 week prior to tumor cell implantation. Tumors were established by injecting harvested tumor cells in a single subcutaneous site on the flank of the mice in the axillary region. The tumors were grown until approximately 200+/−50 mm^3 in size. The animals were then sorted according to body weight, grouped four animals/cage, and tattooed on the tail for permanent identification. Groups consisting of 8 tumor-bearing mice each were administered weekly doses of experimental agents by IV bolus injection through the tail vein. Tumor volumes were determined with vernier caliper measurements taken at right angles using the formula, (L×W^2/2) and body weights, were collected twice weekly. Data was plotted as % change in body weight vs. time in days, and % tumor volume increase vs. days.
T=(mean) time in days for treated group to reach cutoff size (2 grams)
C=(mean) time in days for control group to reach cutoff size (2 grams)
WC is the mean tumor weight of control group at time x
Wt is mean tumor weight of treated group at time x
% Regression=100 (Wo−Wi)/Wo; where Wo is the mean tumor weight for treated group at the initiation of treatment and Wi=the mean tumor weight for that group at time some time x after treatment. Many times the time x=24-48 hr after the final dose of therapy.
The log10 cell kill (gross)=[T−C value in days/(3.32)(Td)
Where T−C=time difference in days between Treated and Control tumors to reach a defined end point; and Td is the Tumor Volume Doubling time in days from the best-fit straight line from a log-linear growth plot of the control tumors exponential growth (100-800 mg range). The conversion of the T−C values to the net log10 tumor cell kill are provided by subtraction of the duration of the treatment period from the T−C value and then dividing by 3.32×Td.
The initial experiment, designated NMX-427, tested the effects of GW1843U89 at two different dose levels, 50 and 100 mg/kg/day×17 days. The control group received vehicle alone. […] There were two durable cures, one in each of the dose groups, which remained until termination of the experiment at day 57. The side-effect toxicity as measured by gross body weight loss was minimal in both drug-treated groups, and was greatest in […]. […]

The mark [2] stands for this setting: Concentration of GW1843 in Plasma.

SMILES strings stand for the structures. Read-outs that look alike come from different tables or passages of the source.

Regarding `Cc1nc2ccc3ccc(CNc4ccc5c(c4)CN(C(CCC(=O)O)C(=O)O)C5=O)cc3c2c(=O)[nH]1` (stereo not shown) [GW1843], in the series “in vivo”, the “volume of distribution of free drug relative to the liposome formulation” value was approximately 14.6 fold. Besides, the AUC(0-inf) – broadly, the area under the concentration-time curve extrapolated to infinity – in the series “in vivo” (AUC(0-inf)) came out at 270 ± 28 ng·h/mL. For the same compound, the AUC(0-t) (in general, the area under the concentration-time curve up to a stated or last time point) in the series “in vivo” (AUC(0-last)) came out at 250 ng·h/mL. In addition, the clearance (commonly a measure of how efficiently the substance is removed, as volume per time) in the series “in vivo” (CL) was 61 mL/min/kg. In the series “in vivo” (Cmax), the Cmax – broadly, the highest concentration seen after dosing – is 1620 to 1990 ng/mL. Further, in “in vivo” (setting [2]), the concentration at 0.083 hr worked out at 991 ng/mL, the concentration at 0.25 hr stood at 214 ng/mL and the concentration at 0.5 hr was determined as 117 ng/mL. Further, the MRT inf (as a rule, the average time that molecules of a dose stay in the body) in the series “in vivo” (MRT(0-inf)) worked out at 10.8 min. Besides, the half-life (in general, the time in which the quantity being followed falls by half) in the series “in vivo” (T½ (terminal half-life)) is 8.52 ± 0.42 min. Besides, the Vd (as a rule, the apparent volume that relates the amount in the body to the concentration in plasma or blood) in “in vivo” (Vss) was 0.654 L/kg. The same compound gave a clearance in “in vivo” (plasma clearance) of 62.3 mL/min. In series [1] (50 mg/kg/day×17 days), the log cell kill is 3.0 and the durable cures entry is reported as “one”. Besides, in series [1] (100 mg/kg/day×17 days), the log cell kill turned out to be 3.3 and the durable cures entry is “one”.
